Experimental data from patent US9371331B2, “Modulators of methyl modifying enzymes, compositions and uses thereof” (Constellation Pharmaceuticals, Inc., priority 2012, dated 2016).
Read-outs that look alike come from different tables or passages of the source.

Experiments:
[1] = tested on: H3K27me3 mark in HeLa cells; experiment: H3K27me3 MSD Hela Assay; type: cell-based; conditions: read-out: H3K27me3_MSD_HeLa_ (EC50)
Description: Trypsinized HeLa cells were counted and diluted in 10% DMEM (Life Technologies, Cat. #10569) to 5000 cells/75 μL. Seventy-five […] of cells were place in each well of a 96-well flat-bottomed plate and incubated at 37° C. for 4 hours. Twenty-five μL of test compound (at various concentrations) was added to the cells and incubation continued at 37° C. for 96 hours. Media was then removed and the cells rinsed once with ice cold PBS. Forty μL of ice-cold MSD Buffer AT (10 mM HEPES, pH 7.9, 5 mM MgCl2, 0.25M sucrose, Benzonase (1:10000), 1% Triton X-100 supplemented with fresh 1× Protease Inhibitor cocktail and 1 mM 4-(2-Aminoethyl)benzenesulfonyl fluoride hydrochloride (AEBSF)) was added to each well and the plates placed on ice for 30 minutes. Ten μL of 5M NaCl was then added to each well and incubation on ice continued for another 15 minutes. The material in each well was suspended pipetting up and down and then transferred to a new 96 well plate. The emptied wells were rinsed with 150 uL ice-cold 20 mM Tris pH 7.5, 1 mM EDTA, 1 mM EGTA, supplemented with fresh 1× Protease Inhibitor cocktail and 1 mM AEBSF (“NO salt NO detergent buffer) and transferred to the respective wells in the new plate. Three hundred μL of NO Salt NO detergent buffer was then added to each well of lysates and the plates frozen at −80° C.
On the same day, an appropriate number of MSD standard bind 96-well plates were coated with 30 μL/well of total H3 capture antibody (Millipore. Cat #MAB3422) at 1 μg/mL concentration in PBS. The antibody solution was evenly distributed first by tapping gently on the sides of the plates and then by shaking the plates for a few minutes at 1000 rpm. Antibody coated plates were stored at 4° C. overnight.
The next day the lysates are thawed to RT. The antibody coated MSD plates are washed 3× with TBS-T (Tris-buffered saline (Fisher Scientific, Cat #BP2471-1)+0.2% Tween-20). One-hundred fifty μL of 5% Blocker A in TBS-T is added to each well. The wells are covered and shaken on a shaker at RT for one hour. The Blocker A step is repeated a second time. After removing the blocker, 25 μL of cell lysate is transferred into each antibody coated well. The plates are shaken for 2 hours at RT, the lysate removed and the plates again washed with Blocker A in TBS-T. Twenty-five μL of appropriate freshly prepared antibody mix (including both primary and secondary antibodies) is added to each well and the plates shaken for 1 hour at RT.
Both H3 antibodies were obtained from Cell Signalling (Cat #s 4499 and 9733). The goat anti-rabbit antibody was obtained from Meso-Scale Discovery (Cat #R32AB-1).
The antibody mix was then removed and the wells washed with Blocker A. One hundred-fifty μL of freshly prepared 1×MSD Read Buffer (Meso-Scale Discovery; Cat #R927C-2) was then added to each well and the plates read on a MSD Sector 2400 Plate Reader.
Data was analyzed using Assay Assistant (Constellation Pharmaceuticals In-house product) and Activity Base (IDBS Ltd, Surrey, UK) template. Data files were imported to Assay Assistant and assay conditions were specified. A unique Analysis ID was created and the data files exported to Activity Base. An analysis template was created on Activity Base to measure dose-dependent inhibition of H3K27me3 mark and cell viability respectively. Readout of DMSO wells were used to normalize the data. Resulting curves were fitted using Activity base software Model 205 (IDBS Ltd. Surrey, UK). The data was checked for quality, validated and integrated in excel format using SARview (IDBS Ltd, Surrey, UK).

EZH2 (rPRC2) = EZH2 (rPRC2) (Homo sapiens, UniProt Q15910); experiment: EZH2 assay: rPRC2, biotinylated oligonucleosomes, 3H SAM methyl transfer (FlashPlate scintillation); type: biochemical; conditions: biotinylated oligonucleosome substrate
Sequence of EZH2 (rPRC2) (Q15910 whole entry): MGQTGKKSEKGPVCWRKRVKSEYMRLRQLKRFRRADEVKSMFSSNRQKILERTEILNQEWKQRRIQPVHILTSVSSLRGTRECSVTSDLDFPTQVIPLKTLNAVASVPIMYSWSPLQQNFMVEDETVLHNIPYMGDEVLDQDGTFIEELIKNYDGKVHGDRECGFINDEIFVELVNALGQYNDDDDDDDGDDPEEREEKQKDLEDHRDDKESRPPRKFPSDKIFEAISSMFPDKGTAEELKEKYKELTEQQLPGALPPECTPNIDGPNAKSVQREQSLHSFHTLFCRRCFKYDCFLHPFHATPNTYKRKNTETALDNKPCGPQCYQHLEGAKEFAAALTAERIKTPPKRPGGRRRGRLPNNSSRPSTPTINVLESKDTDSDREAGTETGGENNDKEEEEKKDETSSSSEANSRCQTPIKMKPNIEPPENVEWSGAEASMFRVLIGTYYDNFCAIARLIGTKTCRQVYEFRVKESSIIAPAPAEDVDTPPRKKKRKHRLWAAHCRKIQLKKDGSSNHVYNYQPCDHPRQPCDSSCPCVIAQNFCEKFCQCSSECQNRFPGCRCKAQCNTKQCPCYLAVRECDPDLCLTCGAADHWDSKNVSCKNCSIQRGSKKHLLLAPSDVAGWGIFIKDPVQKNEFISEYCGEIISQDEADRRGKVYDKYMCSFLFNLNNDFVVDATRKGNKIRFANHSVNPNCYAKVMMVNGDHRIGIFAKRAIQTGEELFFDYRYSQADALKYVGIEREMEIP
Sequence of EZH2 (rPRC2) (O75530 whole entry partner): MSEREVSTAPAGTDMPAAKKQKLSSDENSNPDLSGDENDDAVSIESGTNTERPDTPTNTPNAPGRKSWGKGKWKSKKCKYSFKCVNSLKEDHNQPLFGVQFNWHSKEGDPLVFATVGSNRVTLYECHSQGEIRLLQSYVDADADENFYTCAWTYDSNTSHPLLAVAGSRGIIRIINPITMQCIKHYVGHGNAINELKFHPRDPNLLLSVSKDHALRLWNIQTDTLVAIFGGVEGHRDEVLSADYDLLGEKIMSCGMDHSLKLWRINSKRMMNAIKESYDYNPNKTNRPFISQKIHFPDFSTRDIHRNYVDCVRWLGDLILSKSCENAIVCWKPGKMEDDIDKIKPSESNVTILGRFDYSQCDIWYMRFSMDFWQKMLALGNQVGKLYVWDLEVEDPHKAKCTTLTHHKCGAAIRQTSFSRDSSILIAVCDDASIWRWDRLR
Sequence of EZH2 (rPRC2) (Q15022 whole entry partner): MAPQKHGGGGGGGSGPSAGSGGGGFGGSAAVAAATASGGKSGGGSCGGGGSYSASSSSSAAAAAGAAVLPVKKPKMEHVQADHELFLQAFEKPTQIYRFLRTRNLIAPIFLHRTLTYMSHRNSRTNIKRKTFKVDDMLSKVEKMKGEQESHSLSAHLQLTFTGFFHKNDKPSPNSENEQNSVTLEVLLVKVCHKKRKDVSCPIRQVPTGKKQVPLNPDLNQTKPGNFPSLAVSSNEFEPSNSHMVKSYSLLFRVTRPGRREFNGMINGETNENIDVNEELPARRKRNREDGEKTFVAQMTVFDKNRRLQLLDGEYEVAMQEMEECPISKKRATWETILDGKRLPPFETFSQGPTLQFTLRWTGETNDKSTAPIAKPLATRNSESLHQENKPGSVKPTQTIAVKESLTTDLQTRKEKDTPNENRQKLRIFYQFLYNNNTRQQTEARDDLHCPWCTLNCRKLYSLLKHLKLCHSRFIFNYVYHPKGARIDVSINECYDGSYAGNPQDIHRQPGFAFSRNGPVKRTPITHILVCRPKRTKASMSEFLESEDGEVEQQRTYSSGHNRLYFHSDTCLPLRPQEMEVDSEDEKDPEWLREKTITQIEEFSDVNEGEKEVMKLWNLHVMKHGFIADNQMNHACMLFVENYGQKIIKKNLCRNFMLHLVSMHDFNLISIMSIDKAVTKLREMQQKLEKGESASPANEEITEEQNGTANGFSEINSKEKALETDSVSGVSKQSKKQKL

Y641N EZH2 = Y641N EZH2 (Homo sapiens, UniProt Q15910, Y641N); experiment: Y641N EZH2 assay: as EZH2 assay, with reconstituted H3K27Me2 oligonucleosomes as substrate; type: biochemical
Sequence of Y641N EZH2 (Q15910 whole entry Y641N): as the sequence (Q15910 whole entry) above, with Y641N counted along it
Sequence of Y641N EZH2 (O75530 whole entry partner): as the sequence (O75530 whole entry partner) above
Sequence of Y641N EZH2 (Q15022 whole entry partner): as the sequence (Q15022 whole entry partner) above

[2] = EZH2 IC50, wild-type EZH2 (rPRC2)
[3] = Y641N EZH2 IC50, Y641N mutant EZH2, H3K27Me2 oligonucleosome substrate

SMILES | IC50 (EZH2 (rPRC2); [2]) [nM] | IC50 (Y641N EZH2; [3]) [nM] | further results
COCC(C)n1c(C)c(C(=O)NCc2c(C)cc(C)[nH]c2=O)c2ccccc21 (single isomer, unassigned; peak 2) [Compound 218, (R or S)-N-((4,6-dimethyl-2-oxo-1,2-dihydropyridin-3-yl)methyl)-1-(1-methoxypropan-2-yl)-2-methyl-1H-indole-3-carboxamide-PEAK 2] | – | – | EC50 ([1]; Homo sapiens, HeLa, 96 h): < 400 nM
CCC(C)n1c(C)c(C(=O)NCc2c(C)cc(C)nc2O)c2ccccc21 (stereo not shown) [Compound 123, 1-sec-butyl-N-((2-hydroxy-4,6-dimethylpyridin-3-yl)methyl)-2-methyl-1H-indole-3-carboxamide] | – | – | EC50 ([1]; Homo sapiens, HeLa, 96 h): 400 to 2000 nM
Cc1cc(C)c(CNC(=O)c2c(C)n(C(C)c3ccccc3)c3ccccc23)c(O)n1 (single isomer, unassigned) [Compound 137, (R or S)—N-((2-hydroxy-4,6-dimethylpyridin-3-yl)methyl) 2-methyl-1-1-phenylethyl) 1H-indole-3-carboxamide] | – | – | EC50 ([1]; HeLa cells, MSD, 96 hours): 400 to 2000 nM
CCC(OC)C(C)n1c(C)c(C(=O)NCc2c(OC)cc(C)[nH]c2=O)c2cccnc21 (stereo not shown) [Compound 293, N-((4-methoxy-6-methyl-2-oxo-1,2-dihydropyridin-3-yl)methyl)-1-(3-methoxypentan-2-yl)-2-methyl-1H-pyrrolo [2,3-b] pyridine-3-carboxamide] | < 100 | 100 to 1000 | –
Cc1cc(C)c(CNC(=O)c2nn(C(C)c3ccccc3)c3ccccc23)c(O)n1 (stereo not shown) [Compound 112, N-((2-hydroxy-4,6-dimethylpyridin-3-yl)methyl)-1-(1-phenylethyl)-1H-indazole-3-carboxamide] | – | – | EZH2 IC50 (EZH2 (rPRC2); wild-type EZH2 (rPRC2)): *(10 μM); Y641N EZH2 IC50 (Y641N EZH2; Y641N mutant EZH2, H3K27Me2 oligonucleosome substrate): *(10 μM)
Cc1cc(C)c(CNC(=O)c2c(C)n(C(C)c3cccc(C#N)c3)c3ccccc23)c(=O)[nH]1 (single isomer, unassigned) [Compound 228, (R or S)-1-(1-(3-cyanophenyl)ethyl)-N-((4,6-dimethyl-2-oxo-1,2-dihydropyridin-3-yl)methyl)-2-methyl-1H-indole-3-carboxamide] | 100 to 1000 | 100 to 1000 | –
Cc1cc(C)c(CNC(=O)c2c(C)n(C(C)C(C)(C)O)c3ncccc23)c(=O)[nH]1 (stereo not shown) [Compound 271, N-((4,6-dimethyl-2-oxo-1,2-dihydropyridin-3-yl)methyl)-1-(3-hydroxy-3-methylbutan-2-yl)-2-methyl-1H-pyrrolo[2,3-b]pyridine-3-carboxamide] | 1000 to 10000 | 1000 to 10000 | –
Cc1cc(C)c(CNC(=O)c2c(C)n(S(=O)(=O)N3CCCCC3)c3ncccc23)c(=O)[nH]1 [Compound 194, N-((4,6-dimethyl-2-oxo-1,2-dihydropyridin-3-yl)methyl)-2-methyl-1-(piperidin-1-ylsulfonyl)-1H-pyrrolo[2,3-b]pyridine-3-carboxamide] | – | – | IC50 (EZH2 (rPRC2); wild-type EZH2 (rPRC2), read-out: EZH2 IC50): 100 to 1000 nM; IC50 (Y641N EZH2; Y641N mutant EZH2, H3K27Me2 oligonucleosome substrate, read-out: Y641N EZH2 IC50): 1000 to 10000 nM
Cc1cc(C)c(CNC(=O)c2c(C)n(CC3(C)COC3)c3ccccc23)c(=O)[nH]1 [Compound 246, N-((4,6-dimethyl-2-oxo-1,2-dihydropyridin-3-yl)methyl)-2-methyl-1-((3-methyloxetan-3-yl)methyl)-1H-indole-3-carboxamide] | 100 to 1000 | 100 to 1000 | –
Cc1cc(C)c(CNC(=O)c2c(C)n(Cc3ccccc3)c3ccccc23)c(O)n1 [Compound 119, 1-benzyl-N-((2-hydroxy-4,6-dimethylpyridin-3-yl)methyl)-2-methyl-1H-indole-3-carboxamide] | < 100 | 100 to 1000 | –
Cc1cc(C)c(CNC(=O)c2c(C)n(C(C)CCO)c3ncccc23)c(=O)[nH]1 (racemic) [Compound 193, (±)-N-((4,6-dimethyl-2-oxo-1,2-dihydropyridin-3-yl)methyl)-1-(4-hydroxybutan-2-yl)-2-methyl-1H-pyrrolo[2,3-b]pyridine-3-carboxamide] | 100 to 1000 | 1000 to 10000 | –
CCOC(C)C(C)n1c(C)c(C(=O)NCc2c(OC)cc(C)[nH]c2=O)c2ccccc21 (racemic) [Compound 290, (±)-1-(3-ethoxybutan-2-yl)-N-((4-methoxy-6-methyl-2-oxo-1,2-dihydropyridin-3-yl)methyl)-2-methyl-1H-indole-3-carboxamide] | < 100 | 100 to 1000 | –
CCc1cc(OC)c(CNC(=O)c2c(C)n(C(C)COC)c3ncccc23)c(=O)[nH]1 (racemic) [Compound 280, (±)-N-((6-ethyl-4-methoxy-2-oxo-1,2-dihydropyridin-3-yl)methyl)-1-(1-methoxypropan-2-yl)-2-methyl-1H-pyrrolo[2,3-b]pyridine-3-carboxamide] | 100 to 1000 | 1000 to 10000 | –
Cc1cc(C)c(CNC(=O)c2c(C)n(C(C)c3ccccc3C#N)c3ccccc23)c(=O)[nH]1 (racemic) [Compound 178, (±)-1-(1-(2-cyanophenyl)ethyl)-N-((4,6-dimethyl-2-oxo-1,2-dihydropyridin-3-yl)methyl)-2-methyl-1H-indole-3-carboxamide] | 100 to 1000 | 1000 to 10000 | –
CCC(OC)C(C)n1c(C)c(C(=O)NCc2c(OC)cc(C)[nH]c2=O)c2ccccc21 (stereo not shown) [Compound 299, N-((4-methoxy-6-methyl-2-oxo-1,2-dihydropyridin-3-yl)methyl)-1-(3-methoxypentan-2-yl)-2-methyl-1H-indole-3-carboxamide] | < 100 | < 100 | –
CC[C@@H](C)n1c(C)c(C(=O)NCc2c(C)cc(C)nc2O)c2cncnc21 [Compound 189, (R)-7-(sec-butyl)-N-((2-hydroxy-4,6-dimethylpyridin-3-yl)methyl)-6-methyl-7H-pyrrolo[2,3-d]pyrimidine-5-carboxamide] | 100 to 1000 | 1000 to 10000 | –
Cc1cc(C)c(CNC(=O)c2c(C)n(C(C)c3cccc(-c4ccncn4)c3)c3ccccc23)c(=O)[nH]1 (racemic) [Compound 205, (±)-N-((4,6-dimethyl-2-oxo-1,2-dihydropyridin-3-yl)methyl)-2-methyl-1-(1-(3-(pyrimidin-4-yl)phenyl)ethyl)-1H-indole-3-carboxamide] | 100 to 1000 | 100 to 1000 | –
COC(C)C(C)n1c(C)c(C(=O)NCc2c(C)cc(C)[nH]c2=O)c2ccc(S(C)(=O)=O)cc21 (stereo not shown) [Compound 322, N-((4,6-dimethyl-2-oxo-1,2-dihydropyridin-3-yl)methyl)-1-(3-methoxybutan-2-yl)-2-methyl-6-(methylsulfonyl)-1H-indole-3-carboxamide] | 100 to 1000 | 100 to 1000 | –
Cc1cc(C)c(COC(=O)c2c(C)n(C3CCOC3)c3ncccc23)c(=O)[nH]1 (racemic) [Compound 202, (±)-(4,6-dimethyl-2-oxo-1,2-dihydropyridin-3-yl)methyl 2-methyl-1-(tetrahydrofuran-3-yl)-1H-pyrrolo[2,3-b]pyridine-3-carboxylate] | 100 to 1000 | 1000 to 10000 | –
COCCOC(C)C(C)n1c(C)c(C(=O)NCc2c(OC)cc(C)[nH]c2=O)c2cccnc21 (racemic) [Compound 297, (±)-N-((4-methoxy-6-methyl-2-oxo-1,2-dihydropyridin-3-yl)methyl)-1-(3-(2-methoxyethoxy)butan-2-yl)-2-methyl-1H-pyrrolo[2,3-b]pyridine-3-carboxamide 2,2,2-trifluoroacetate] | < 100 | 100 to 1000 | –
